Assay results as given in patent publication US20090239875A1, “Protection of ferulic acid and/or tetramethylpyrazine against retinal ischaemia, glaucoma and siderosis oculi” (Committee on Chinese Medicine and Pharmacy, Department of …, priority 2008, published 2009).

How the values were obtained:
[1] = test system: rats subjected to 60 min retinal ischaemia plus reperfusion (I/R); test: Flash ERG b-wave ratio after 60 min HIOP-induced retinal ischaemia plus reperfusion; assay type: in vivo, Wistar rat
Text: Six-week old Wistar rats (body weight: 250˜500 g) were anaesthetized with an intramuscular injection of ketamine and xylazine as described above and placed in a stereotaxic frame. The anterior chamber of one eye, with the other serving as control, was cannulated with a 30-gauge needle connected to a 0.9% saline reservoir; this caused an increase in IOP to 120 mmHg. A whitening of the iris and the fundus of the retina confirmed induction of an ischaemic insult (Block, F., et al. Gen Pharmacol. 30(3):281-7, 1997).
(§1) For electro-physiological, immuohistochemical, and molecular biological studies, drug administration was carried out with pre-administration (60 minutes before HIOP) of vehicle (saline for FA/TMP), FA (0.5 or 0.1 nmole), or TMP (0.5 nmole). The 60-minute HIOP procedure to induce ischaemic damage was carried out as defined. Intra-vitreous injection (i.v.i.) of 5 μl of each compound was given to the ‘ischaemic’ eye of each test rat using a 30-gauge needle attached to a 20 μl Hamilton syringe. As a control, the same volume of vehicle was intravitreously injected into the “ischaemic” eye of each control rat. In both cases, the fellow untreated eye acted as a normal control eye. In this case, FA, TMP, or vehicle was applied only to the eye (ipsilateral) which received ischaemia. Dose-response experiments for FA will also be performed.

[2] = test system: ChAT immunoreactivity (cholinergic amacrine cells) in the ischaemic retina; test: ChAT immunofluorescence of the retina after ischaemia/reperfusion; assay type: in vivo, Wistar rat; details: 7 days reperfusion
Protocol: On day 7 after retinal ischaemia pre-treated with vehicle or tested compounds, the Wistar rats were killed by an overdose of sodium pentobarbitone injected into the peritoneal cavity as mentioned earlier. Rat retinas were carefully and rapidly dissected from the eyecups with the aim of completely detaching the sensory retina from the RPEs. They were incubated in Mg^2+-free Locke's buffer containing: 154 mM NaCl, 5.6 mM KCl, 2.3 mM CaCl2, 3.6 mM NaHCO3, 5 mM N-[2-hydroxyethyl]piperazine-N′-[2-ethanesulfonic acid] (HEPES) and 5.6 mM D-glucose. The Locke's solution was briefly equilibrated before use with a gas mixture of 95% O2 and 5% CO2 at 37° C., pH 7.4. Retinal pieces were fixed for a further 45 minutes in 4% (w/v) paraformaldehyde in sodium phosphate buffer (0.2 M NaH2PO4.2H2O; 0.2M Na2HPO4; pH 7.4) and then transferred to 30% sucrose in sodium phosphate buffer for cryosectioning. Retinas were orientated and similarly mounted on a metal stand using O.C.T. compound (Merck Ltd) and then promptly frozen with dry ice. In this way, sections from similar areas were produced and thus the retinal sections (10 μm) had approximately the same eccentricity, which allowed direct comparison. […]

[3] = test system: Thy-1 immunoreactivity (retinal ganglion cells) in the ischaemic retina; test: Thy-1 immunofluorescence of the retina after ischaemia/reperfusion; assay type: in vivo, Wistar rat; details: 0.5 nmole i.v.i. pre-treatment; 7 days after I/R
Protocol: as §1
On day 7 after retinal ischaemia pre-treated with vehicle or tested compounds, the Wistar rats were killed by an overdose of sodium pentobarbitone injected into the peritoneal cavity as mentioned earlier. Rat retinas were carefully and rapidly dissected from the eyecups with the aim of completely detaching the sensory retina from the RPEs. They were incubated in Mg^2+-free Locke's buffer containing: 154 mM NaCl, 5.6 mM KCl, 2.3 mM CaCl2, 3.6 mM NaHCO3, 5 mM N-[2-hydroxyethyl]piperazine-N′-[2-ethanesulfonic acid] (HEPES) and 5.6 mM D-glucose. […]

Thy-1 mRNA = test: Semi-quantitative RT-PCR of Thy-1 mRNA in the retina after ischaemia/reperfusion; assay type: in vivo, Wistar rat; details: 7 days after I/R, sham operation 100.0000, n=4
Protocol: as §1
Levels of Thy-1 mRNAs present in the retinas were determined using a semi-quantitative RT-PCR technique. These were compared with the mRNA levels measured for the house-keeping gene β-actin as an internal standard (Nucci, C., et al. Invest Opthalmol V is Sci. 48(7):2997-3004, 2007). Seven days after sham operation alone or retinal ischaemia pre-treated with vehicle or defined chemicals, the rats were killed and the retinas removed and sonicated in TriReagent (as per manufacturer's instructions). Total retinal RNA was isolated and first strand cDNA synthesis was performed on 4 μg DNase-treated RNA (Nash, M. S., et al. Invest. Opthalmol. Vis. Sci. 40:1293-8, 1999). […]
The PCR reaction products were separated on 1.5% agarose gels using ethidium bromide for visualization. The relative abundance of each PCR product was determined by analyzing photographs of the gels by SigmaScan (Jandel Scientific, Corte Madera, Calif.). […]

hydroxyl radicals (.OH) [4] = test: Salicylate trapping / vitreous microdialysis of hydroxyl radicals (2,3-DHBA) in HIOP-induced retinal ischaemia; assay type: in vivo, Wistar rat; details: for Levels of 2,3-DHBA (.OH) in vitreous dialysate: at 60 minutes of HIOP-induced retinal ischaemia, n=4
Text: Rats were anesthetized and placed in a stereotaxic frame. This approach was adapted from Louzada-Junior et al with further modification. The microdilaysis tube was inserted into the vitreous cavity through the nonvascular pars plana of the sclera (0.5 mm from the corneal limbus) after it had been pre-punctured with a 25-gauge needle. This avoided the problem of bleeding into the vitreous cavity with consequent contamination of vitreous. With the microdialysis probe in position, the whole retina was subjected to HIOP-induced ischaemia for 120 minutes.
After an equilibration period of 45 min, a stable baseline was obtained. HIOP-induced retinal ischaemia was then performed. Samples were collected every 15 minutes starting 45 minutes before ischaemia and continuing for the subsequent 120-minute ischaemia. The microdialysates collected from the microdialysis probe were deposited into polyethylene vials (Microbiotech, Stockholm, Sweden) containing 15 μl of 0.1 M perchloric acid and were stored at −70° C. until analysis. The formation of .OH was quantified as the increase in 2,3-DHBA, which is the hydroxylative product of salicylic acid. Since 2,5-DHBA can also be produced via enzymatic pathways by virtue of P-450, 2,3-DHBA is considered to be a specific marker of .OH. Eluted microdialysates were directly injected into and 2,3-DHBA was analyzed by a high performance liquid chromatograph coupled with an electrochemical detector (HPLC-EC; Model LC-4C, Bioanalytical System Inc., West Lafayette, IN, USA).
The DHBA compound was oxidized using a glassy carbon working electrode (oxidation potential: +750 mV; model MF 1000, Bioanalytical System Inc., West Lafayette, IN, USA) and an Ag/AgCl reference electrode (model MW 2021, Bioanalytical System Inc., West Lafayette, IN, USA) with a special thin-layer gasket for the microbore LC-EC. In order to minimize dead volume, the column was connected directly between the micro-sampler and the working electrode. The mobile phase included 1-heptane sulfonic acid sodium salt (MW: 202.25) 3.15 g, EDTA 0.15 g, phosphoric acid 4.5 ml, triethylamine 5.25 ml, acetonitrile 255 ml, distilled water (added to 1.5 liters), pH 2.7. […] This is the first invention utilizing the defined modified microdialysis system for the measurement of .OH in the rat eye in vivo.
For electro-physiological, immuohistochemical, and molecular biological studies, drug administration was carried out with pre-administration (60 minutes before HIOP) of vehicle (saline for FA/TMP), FA (0.5 or 0.1 nmole), or TMP (0.5 nmole). The 60-minute HIOP procedure to induce ischaemic damage was carried out as defined. Intra-vitreous injection (i.v.i.) of 5 μl of each compound was given to the ‘ischaemic’ eye of each test rat using a 30-gauge needle attached to a 20 μl Hamilton syringe. […]

[5] = test system: ChAT immunoreactivity (cholinergic amacrine neurones) in the siderotic retina; test: ChAT immunofluorescence of the retina after experimental siderosis; assay type: in vivo, Wistar rat; details: 0.5 nmole i.v.i. 60 minutes before siderosis; 25 nmole FeSO4 for 5 days
Protocol: (§2) Iron toxicity and the formation of .OH were stimulated by an intravitreous application of FeSO4 with or without the presence of the test compounds FA and/or TMP. For the dose-response iron toxicity experiments, 24 mM (72 nmoles), 8 mM (24 nmoles) and 0.8 mM (2.4 nmoles) of FeSO4 were utilized. To test drug biochemical effects on the oxidative stress caused by the experimental siderosis, an intravitreous injection of FA (100 mM) was carried out 60 minutes before siderosis. In further electro-physiological and immuohistochemical studies, with or without pre-administration of 0.5 or 0.1 nmoles of FA/TMP, a medium amount of FeSO4 (25 nmole) was chosen to induce damage due to such as an oxidative stress so as not to reach the maximal pharmacological effect.
The time course of the experiments involved enucleation of the rat eyes and retrieval of the retinal pieces on day 1 (Western blot), day 5 (immunohistochemistry) and day 28 (histopathology) after experimental siderosis with/without each test compound.
For immunohistochemical analysis, rats were intracardially perfused first with 0.9% saline and then with 4% (w/v) paraformaldehyde. […] In order to observe the expression of ‘ROS-related enzymes’, retinal sections were incubated with primary antibody: rabbit polyclonal anti-rat manganese SOD (1:100; Upstate, NY) or rabbit anti-catalase (1:1000; Calbiochem, CA). […]

[6] = test system: rats given experimental siderosis; test: Flash ERG in experimental siderosis (intravitreous FeSO4 or iron particle); details: for Effect on FeSO4 induced reduction in the b-wave amplitudes: 0.5 or 0.1 nmoles pre-administered, 25 nmole FeSO4, 3 and 5 days after siderosis, vs saline-treated animals
Protocol: The animals were first dark adapted for at least 8 hours, anaesthetized as already described and the pupils dilated with 1% tropicamide and 2.5% phenylephrine. The animal was then placed in a stereotaxic frame and the body temperature maintained at 37° C. with an electrical blanket. A platinum wire loop was placed on the corneal surface to act as the recording electrode. A ground electrode was connected to the scruff of the back together with a reference electrode to the tongue of the animal. A strobe was placed 5 cm in front of the animal to provide a stimulus of 0.5 Hz. Fifteen consecutive responses were recorded at two-second intervals and at 10 kHz; the responses were amplified and averaged using an amplifier P511/regulated power supply RPS107/stimulator PS22 (Grass-Telefactor, Astro-Med. Inc., R1, USA). The a-wave amplitude was measured from the baseline to the trough of the a-wave and the b-wave amplitude was measured from the trough of the a-wave to the peak of the b-wave.
The Wistar rats were anesthetized with an intramuscular injection of ketamine (100 mg/kg) and xylazine (5 mg/kg), and placed in a stereotaxic frame. The chronic model of experimental siderosis was established as follows. Through a port punctured by a 20-gauge intravenous catheter (0.5 mm from the corneal limbus), an autoclaved defined iron particle was slowly and carefully implanted into the vitreous cavity of one eye of each experimental rat through the catheter sheath by the catheter inner shaft (a needle). The punctured wound was then sutured with sterilized 10-0 nylon to keep a close system. Similarly (0.5 mm from the corneal limbus) and guided by the 20-gauge intravenous catheter, an autoclaved acrylate chip was implanted into the vitreous cavity of one eye of each control rat.
Similarly, the acute model of experimental siderosis was set up utilizing various concentrations of iron sulfate with the control group being injected with saline. The animals were kept normothermic with a heated water jacket after anesthesia and were placed on an electrical blanket during recovery (both set at 37° C.).
as §2

hydroxyl radicals (.OH) [7] = test: ROS assay in vivo (2,3-DHBA by vitreous microdialysis) in experimental siderosis
Protocol: Iron toxicity and the formation of .OH were stimulated by an intravitreous application of FeSO4 with or without the presence of the test compounds FA and/or TMP. For the dose-response iron toxicity experiments, 24 mM (72 nmoles), 8 mM (24 nmoles) and 0.8 mM (2.4 nmoles) of FeSO4 were utilized. To test drug biochemical effects on the oxidative stress caused by the experimental siderosis, an intravitreous injection of FA (100 mM) was carried out 60 minutes before siderosis.
Trapping of hydroxyl radicals was accomplished by perfusing physiological saline containing 5 mM salicylic acid through a microdialysis probe (CMA/12, PC 14/01, CMA/Microdialysis, Stockholm, Sweden) inserted into the vitreous cavity of a rat eye after intra-vitreous implantation of either an iron or acrylate chip for the defined chronic model and its control. […] Salicylate was infused at the rate of 1.1 μl/min using a 1-ml Exmire microsyringe attached to a microdialysis pump (CMA-100, CMA/Microdialysis, Stockholm, Sweden). This was carried out every 15 or 20 minutes starting either 60 or 20 minutes before the implantation/injection and continued for 6 hours or 120 minutes following treatment, respectively. […] The hydroxyl radicals were quantified by using 8, 16, 24, 32 and 40 pmoles of 2,3-DHBA (which is photosensitive and can be dissolved in ethanol) as an internal standard.

[8] = test system: glutamate release in the retina
Protocol: Using the same microdialysis system as the ROS assay in vivo, each microdialysate was assayed for the presence of derivatized glutamate product by HPLC with a fluorescence detector (FL; model CMA/280, CMA/Microdialysis, Stockholm, Sweden). The derivatization reaction was carried out at room temperature. O-phthalaldehyde (OPA; 27 mg; Fisher Scientific, Loughborough, UK) was dissolved in 1 ml methanol, 9 ml 0.4 M potassium tetraborate (MW: 303.53; borate buffer: 1.5 g borate plus pure water adjusted to pH 9.5 with 6 M NaOH and then added with water to 100 ml) and 5 μl β-mercaptoethanol (Fisher Scientific, Loughborough, UK). The OPA stock reagent was covered in foil and stored at −20° C. for 1 month. The OPA working solution was prepared each day by diluting 1 ml of the OPA stock reagent with 3 ml of potassium tetraborate (0.4 M). […] For the HPLC separation, the detector output voltage (signal) was monitored using one data system (Scientific Information Service Corporation, Taiwan). […]
Before use, the mobile phase was filtered through a 0.22 μm filter (Millipore) using vacuum assistance. […] The detection sensitivity was 10 M. All standard samples and test samples were analyzed in duplicate.

cortical cells = details: 40 μM FeSO4 vs saline; n=5
Protocol: The cortical cells to be tested were placed on a cover slip and loaded with calcium ion sensitive dye by incubation with a final concentration of 5 μM of the acetoxymethyl ester form of Fura-2 for 30 min at 37° C. in the 1 ml loading buffer. The cover slip was washed three times with buffer containing 150 mM NaCl, 5 mM KCl, 2.2 mM CaCl2, 1 mM MgCl2, 5 mM glucose, 10 mM HEPES, pH 7.4. A micropipette was pulled from a glass capillary by a micropipette puller (P-97, Sutter Instrument Co.) and the tip was polished in a microforge (o.d. 2 μm, MF-83, Narishige). The micropipette was backfilled with the test compound (40 μM FeSO4 or saline) using a fine tip syringe. The cover slip was mounted on an inverted microscope to measure single-cell fluorescence. The ejection mircropipette was positioned at a distance of 10 μm from a cell. A short pulse (0.5s) of the test compound was then applied to a single cell through the micropipette by a microinjection system (Picospritzer II, General Valve) with a pressure of 15 psi. The intracellular calcium concentration, [Ca^2+]i, was calculated using the ratio between the fluorescence at 340 nm and at 380 nm (F340/F380). Changes in the fluorescence ratio represent the changes in the [Ca^2+]i (Yang, D. M., et al. J Microsc 209: 223-227, 2003).

[9] = 0.5 nmole i.v.i. 60 min before 60 min HIOP, 3 days after I/R
[10] = 0.5 nmole i.v.i. 60 min before 60 min HIOP, 5 days after I/R
[11] = 0.5 nmole i.v.i. 60 min before 60 min HIOP, 7 days after I/R
[12] = 0.5 nmole i.v.i. 60 min before ischaemia
[13] = 0.5 nmole i.v.i. 1 hour before ischaemia
[14] = FeSO4 injected five days earlier, particular example

`COc1cc(/C=C/C(=O)O)ccc1O` [FA, ferulic acid] was tested, and the “ERG b-wave ratio (ischaemic eye vs contralateral normal eye)” value ([1]; 0.1 nmole i.v.i. 60 min before 60 min HIOP, 3 days after I/R) was 32.2402±6.3012, the “ERG b-wave ratio (ischaemic eye vs contralateral normal eye)” value ([1]; 0.1 nmole i.v.i. 60 min before 60 min HIOP, 5 days after I/R) was 35.0948±4.6412 and the “ERG b-wave ratio (ischaemic eye vs contralateral normal eye)” value ([1]; 0.1 nmole i.v.i. 60 min before 60 min HIOP, 7 days after I/R) was 47.0775±5.5396. For the same compound, the “ERG b-wave ratio (ischaemic eye vs contralateral normal eye)” value [1, 9] was 48.3576±3.1633, the “ERG b-wave ratio (ischaemic eye vs contralateral normal eye)” value [1, 10] was 56.4287±6.9891 and the “ERG b-wave ratio (ischaemic eye vs contralateral normal eye)” value [1, 11] was 65.8600±6.0998. For the same compound, the “Effect on I/R-induced changes in ChAT immunoreactivity” value (“Effect on I/R-induced changes” for short) ([2]; 0.1 nmole i.v.i. 60 min before ischaemia) was “only a partial counteracting effect”, the “Effect on I/R-induced changes” value [2, 12] was “obviously nullified” and the “Attenuation of ischaemia-induced reduction in thickness of Thy-1 immunolabeling” value [3] was “around 15%”. For the same compound, the “Thy-1 mRNA/β-actin mRNA ratio” value (Thy-1 mRNA; 0.1 nmole i.v.i. 1 hour before ischaemia) was 65.8968±11.9579, the “Thy-1 mRNA/β-actin mRNA ratio” value (Thy-1 mRNA; [13]) was 85.1745±10.3177 and the Levels of 2,3-DHBA (.OH) in vitreous dialysate (hydroxyl radicals (.OH) [4]; 0.1 nmole pre-treatment) was 3.48 pmol/15 µL perfusate. The “Attenuation of ischaemia-evoked increased 2,3-DHBA levels” value (hydroxyl radicals (.OH) [4]; 0.5 nmole pre-treatment, 60 minutes of ischaemia, vs vehicle-pre-treated ischaemic eyes) was “around 2 folds”, the “Levels of 2,3-DHBA (.OH) in vitreous dialysate” value (hydroxyl radicals (.OH) [4]; 0.5 nmole pre-treatment) was 2.8574±0.7186 pmole/15 μl perfusate and the “Effect on iron-induced changes in ChAT immunoreactivity” value [5] was “counteracted”. The “Effect on FeSO4 induced reduction in the b-wave amplitudes” value [6] was “significantly alleviated”, the “Effect on production of OH (2,3-DHBA) in siderosis” value (hydroxyl radicals (.OH) [7]; 100 μM, siderotic rats insulted by 8 mM FeSO4, vs saline) was “significantly decreased” and the “Effect on formation of .OH (2,3-DHBA) in siderosis” value (hydroxyl radicals (.OH) [7]; i.v.i. 60 minutes before siderosis, 8 mM FeSO4) was “dose-dependently and significantly decreased”.

For `Cc1nc(C)c(C)nc1C` [TMP, tetramethylpyrazine], the “ERG b-wave ratio (ischaemic eye vs contralateral normal eye)” value [1, 9] was 17.9250±11.7135, the “ERG b-wave ratio (ischaemic eye vs contralateral normal eye)” value [1, 10] was 17.1500±6.8996 and the “ERG b-wave ratio (ischaemic eye vs contralateral normal eye)” value [1, 11] was 20.1750±8.5027. For the same compound, the “Effect on I/R-induced changes” value [2, 12] was “not affected”, the “Thy-1 mRNA/β-actin mRNA ratio” value (Thy-1 mRNA; [13]) was 46.5876±14.4476 and the “Levels of 2,3-DHBA (.OH) in vitreous dialysate” value (hydroxyl radicals (.OH) [4]; 0.5 nmole pre-treatment) was 4.6865±1.2661 pmole/15 μl perfusate. The “Effect on FeSO4 induced reduction in the b-wave amplitudes” value [6] was “tended to alleviate”.

For ferrous sulfate [FeSO4], the “Glutamate release in the retina” value ([8]; 24 mM and/or 8 mM FeSO4, peaks 20 and 40 minutes after siderosis, vs saline) was “dose-dependent release of glutamate”, the “Glutamate concentration in vitreous dialysate” value ([8]; 20 minutes after ferrous sulfate treatment (8 mM)) was 722 nM and the “Change in [Ca^2+]i (fura-2 ratio F340/F380)” value (cortical cells) was “significant increase”. For the same compound, the “ERG b-wave ratio after intravitreous FeSO4” value ([6]; 8 mM FeSO4 (3 μl) intravitreous, at 2 hours) was “about 45%”, the “ERG a-wave ratio of siderotic eye to normal fellow eye” value [6, 14] was 40.56% and the “ERG b-wave ratio of siderotic eye to normal fellow eye” value [6, 14] was 30.70%. For the same compound, the “2,3-DHBA formed” value (hydroxyl radicals (.OH) [7]; 20 minutes after injection of 8 mM FeSO4) was 91.23 pmol.
